Patent US20230085307A1, “PYRIDAZINONE COMPOUND AND HERBICIDE” (NISSAN CHEMICAL CORPORATION, priority 2019, published 2023)

Key:
Italian ryegrass [1] = test: Test Example 4: herbicidal effect by soil treatment (Table 19, symbol K); assay type: in vivo, Italian ryegrass (Lolium multiflorum); settings: amount of applied herbicide 320 g/ha
Outline: (§1)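 Scoring uses the grading scale of an earlier test, three weeks post-application. Treatment consists of spraying a diluted emulsion formulation across the surface of sterilized diluvial soil in which seeds are buried near 1.5 cm deep; boxes are kept in a greenhouse between 25° C. and 30° C.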

Chinese sprangletop = test: Test Example 3: herbicidal effect by foliage application, Wagner pot (Table 18, symbol D); assay type: in vivo, chinese sprangletop (Leptochloa chinensis); settings: 320 g/ha
Outline: (§2)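 Plants were sown in alluvial soil held under 0.1–0.5 cm standing water and grown 14 days in a greenhouse at 25–30 °C. An emulsifiable formulation, water-diluted to the set dose, was then sprayed onto the foliage, and effects were scored three weeks later using previously defined criteria.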

blackgrass [2] = test: Test Example 4: herbicidal effect by soil treatment (Table 19, symbol J); assay type: in vivo, blackgrass (Alopecurus myosuroides); settings: amount of applied herbicide 320 g/ha
Outline: as §1

green foxtail [3] = test: Test Example 4: herbicidal effect by soil treatment (Table 19, symbol G); assay type: in vivo, green foxtail (Setaria viridis); settings: amount of applied herbicide 320 g/ha
Outline: as §1

Italian ryegrass [4] = test: Test Example 5: herbicidal effect by foliage application, plastic box (Table 20, symbol K); assay type: in vivo, Italian ryegrass (Lolium multiflorum); settings: 320 g/ha, foliage application after 14-day growth, evaluated three weeks after application
Outline: (§3)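 Post-emergence foliar test in sterilized diluvial soil. Compound applied as water-diluted emulsion at a predetermined rate to 14-day-old plants; evaluation at three weeks.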

wild oat [5] = test: Test Example 5: herbicidal effect by foliage application, plastic box (Table 20, symbol I); assay type: in vivo, wild oat (Avena fatua); settings: 320 g/ha, foliage application after 14-day growth, evaluated three weeks after application
Outline: as §3

southern crabgrass [6] = test: Test Example 4: herbicidal effect by soil treatment (Table 19, symbol F); assay type: in vivo, southern crabgrass (Digitaria ciliaris); settings: amount of applied herbicide 320 g/ha
Outline: as §1

chickweed [7] = test: Test Example 5: herbicidal effect by foliage application, plastic box (Table 20, symbol P); assay type: in vivo, common chickweed (Stellaria media); settings: 320 g/ha, foliage application after 14-day growth, evaluated three weeks after application
Outline: as §3

velvetleaf [8] = test: Test Example 5: herbicidal effect by foliage application, plastic box (Table 20, symbol M); assay type: in vivo, velvetleaf (Abutilon theophrasti); settings: 320 g/ha, foliage application after 14-day growth, evaluated three weeks after application
Outline: as §3

barnyard grass [9] = test: Test Example 4: herbicidal effect by soil treatment (Table 19, symbol H); assay type: in vivo, barnyard grass (Echinochloa crus-galli); settings: amount of applied herbicide 320 g/ha
Outline: as §1

green foxtail [10] = test: Test Example 5: herbicidal effect by foliage application, plastic box (Table 20, symbol G); assay type: in vivo, green foxtail (Setaria viridis); settings: 320 g/ha, foliage application after 14-day growth, evaluated three weeks after application
Outline: as §3

persian speedwell [11] = test: Test Example 4: herbicidal effect by soil treatment (Table 19, symbol R); assay type: in vivo, Persian speedwell (Veronica persica); settings: amount of applied herbicide 320 g/ha
Outline: as §1

chickweed [12] = test: Test Example 4: herbicidal effect by soil treatment (Table 19, symbol P); assay type: in vivo, common chickweed (Stellaria media); settings: amount of applied herbicide 320 g/ha
Outline: as §1

southern crabgrass [13] = test: Test Example 5: herbicidal effect by foliage application, plastic box (Table 20, symbol F); assay type: in vivo, southern crabgrass (Digitaria ciliaris); settings: 320 g/ha, foliage application after 14-day growth, evaluated three weeks after application
Outline: as §3

barnyard grass [14] = test: Test Example 3: herbicidal effect by foliage application, Wagner pot (Table 18, symbol H); assay type: in vivo, barnyard grass (Echinochloa crus-galli); settings: 320 g/ha
Outline: as §2

blackgrass [15] = test: Test Example 5: herbicidal effect by foliage application, plastic box (Table 20, symbol J); assay type: in vivo, blackgrass (Alopecurus myosuroides); settings: 320 g/ha, foliage application after 14-day growth, evaluated three weeks after application
Outline: as §3

lambsquarters [16] = test: Test Example 5: herbicidal effect by foliage application, plastic box (Table 20, symbol O); assay type: in vivo, lambsquarters (Chenopodium album); settings: 320 g/ha, foliage application after 14-day growth, evaluated three weeks after application
Outline: as §3

barnyard grass [17] = test: Test Example 5: herbicidal effect by foliage application, plastic box (Table 20, symbol H); assay type: in vivo, barnyard grass (Echinochloa crus-galli); settings: 320 g/ha, foliage application after 14-day growth, evaluated three weeks after application
Outline: as §3

rice flat sedge = test: Test Example 3: herbicidal effect by foliage application, Wagner pot (Table 18, symbol E); assay type: in vivo, rice flat sedge (Cyperus iria); settings: 320 g/ha
Outline: as §2

windgrass = test: Test Example 4: herbicidal effect by soil treatment (Table 19, symbol L); assay type: in vivo, windgrass (Apera spica-venti); settings: amount of applied herbicide 320 g/ha
Outline: as §1

wild oat [18] = test: Test Example 4: herbicidal effect by soil treatment (Table 19, symbol I); assay type: in vivo, wild oat (Avena fatua); settings: amount of applied herbicide 320 g/ha
Outline: as §1

redroot pigweed [19] = test: Test Example 4: herbicidal effect by soil treatment (Table 19, symbol N); assay type: in vivo, redroot pigweed (Amaranthus retroflexus); settings: amount of applied herbicide 320 g/ha
Outline: as §1

redroot pigweed [20] = test: Test Example 5: herbicidal effect by foliage application, plastic box (Table 20, symbol N); assay type: in vivo, redroot pigweed (Amaranthus retroflexus); settings: 320 g/ha, foliage application after 14-day growth, evaluated three weeks after application
Outline: as §3

lambsquarters [21] = test: Test Example 4: herbicidal effect by soil treatment (Table 19, symbol O); assay type: in vivo, lambsquarters (Chenopodium album); settings: amount of applied herbicide 320 g/ha
Outline: as §1

persian speedwell [22] = test: Test Example 5: herbicidal effect by foliage application, plastic box (Table 20, symbol R); assay type: in vivo, Persian speedwell (Veronica persica); settings: 320 g/ha, foliage application after 14-day growth, evaluated three weeks after application
Outline: as §3

velvetleaf [23] = test: Test Example 4: herbicidal effect by soil treatment (Table 19, symbol M); assay type: in vivo, velvetleaf (Abutilon theophrasti); settings: amount of applied herbicide 320 g/ha
Outline: as §1

Row | Structure (SMILES) | Herbicidal effect by soil treatment, K: Italian ryegrass (Italian ryegrass [1]) | herbicidal effect on Chinese sprangletop (D) (Chinese sprangletop) | Herbicidal effect by soil treatment, J: blackgrass (blackgrass [2]) | Herbicidal effect by soil treatment, G: green foxtail (green foxtail [3]) | herbicidal effect on K: Italian ryegrass (evaluation grade 0-5) (Italian ryegrass [4]) | herbicidal effect on I: wild oat (evaluation grade 0-5) (wild oat [5]) | Herbicidal effect by soil treatment, F: southern crabgrass (southern crabgrass [6]) | herbicidal effect on P: chickweed (evaluation grade 0-5) (chickweed [7]) | herbicidal effect on M: velvetleaf (evaluation grade 0-5) (velvetleaf [8]) | Herbicidal effect by soil treatment, H: barnyard grass (barnyard grass [9]) | herbicidal effect on G: green foxtail (evaluation grade 0-5) (green foxtail [10]) | Herbicidal effect by soil treatment, R: persian speedwell (persian speedwell [11]) | Herbicidal effect by soil treatment, P: chickweed (chickweed [12]) | herbicidal effect on F: southern crabgrass (evaluation grade 0-5) (southern crabgrass [13]) | herbicidal effect on barnyard grass (H) (barnyard grass [14]) | herbicidal effect on J: blackgrass (evaluation grade 0-5) (blackgrass [15]) | herbicidal effect on O: lambsquarters (evaluation grade 0-5) (lambsquarters [16]) | herbicidal effect on H: barnyard grass (evaluation grade 0-5) (barnyard grass [17]) | herbicidal effect on rice flat sedge (E) (rice flat sedge) | Herbicidal effect by soil treatment, L: windgrass (windgrass) | other results
1 | Cc1nn(C)c(=O)c(-c2c(-c3ccc(F)cc3)sc3c(Cl)cccc23)c1O [4-015] | 0 (Herbicidal rate of 5% or less (almost no effect)) | 3 (Herbicidal rate of 40% or more and less than 70%) | 0 (Herbicidal rate of 5% or less (almost no effect)) | 0 (Herbicidal rate of 5% or less (almost no effect)) | 0 (Herbicidal rate of 5% or less (almost no effect)) | 0 (Herbicidal rate of 5% or less (almost no effect)) | 0 (Herbicidal rate of 5% or less (almost no effect)) | 5 (Herbicidal rate of 90% or more (almost completely withered)) | 1 (Herbicidal rate of 5% or more and less than 20%) | 0 (Herbicidal rate of 5% or less (almost no effect)) | 0 (Herbicidal rate of 5% or less (almost no effect)) | 0 (Herbicidal rate of 5% or less (almost no effect)) | 0 (Herbicidal rate of 5% or less (almost no effect)) | 0 (Herbicidal rate of 5% or less (almost no effect)) | 3 (Herbicidal rate of 40% or more and less than 70%) | 0 (Herbicidal rate of 5% or less (almost no effect)) | 1 (Herbicidal rate of 5% or more and less than 20%) | 0 (Herbicidal rate of 5% or less (almost no effect)) | 5 (Herbicidal rate of 90% or more (almost completely withered)) | 0 (Herbicidal rate of 5% or less (almost no effect)) | Herbicidal effect by soil treatment, I: wild oat (wild oat [18]): 0 (Herbicidal rate of 5% or less (almost no effect)); Herbicidal effect by soil treatment, N: redroot pigweed (redroot pigweed [19]): 2 (Herbicidal rate of 20% or more and less than 40%); herbicidal effect on N: redroot pigweed (evaluation grade 0-5) (redroot pigweed [20]): 1 (Herbicidal rate of 5% or more and less than 20%); Herbicidal effect by soil treatment, O: lambsquarters (lambsquarters [21]): 3 (Herbicidal rate of 40% or more and less than 70%); herbicidal effect on R: persian speedwell (evaluation grade 0-5) (persian speedwell [22]): 4 (Herbicidal rate of 70% or more and less than 90%); Herbicidal effect by soil treatment, M: velvetleaf (velvetleaf [23]): 0 (Herbicidal rate of 5% or less (almost no effect))
2 | Cc1nn(C)c(=O)c(-c2c(-c3ccc(Cl)cc3)sc3c(F)cccc23)c1O [4-040] | 2 (Herbicidal rate of 20% or more and less than 40%) | 4 (Herbicidal rate of 70% or more and less than 90%) | 0 (Herbicidal rate of 5% or less (almost no effect)) | 0 (Herbicidal rate of 5% or less (almost no effect)) | 4 (Herbicidal rate of 70% or more and less than 90%) | 0 (Herbicidal rate of 5% or less (almost no effect)) | 0 (Herbicidal rate of 5% or less (almost no effect)) | 5 (Herbicidal rate of 90% or more (almost completely withered)) | 4 (Herbicidal rate of 70% or more and less than 90%) | 0 (Herbicidal rate of 5% or less (almost no effect)) | 4 (Herbicidal rate of 70% or more and less than 90%) | 4 (Herbicidal rate of 70% or more and less than 90%) | 1 (Herbicidal rate of 5% or more and less than 20%) | 0 (Herbicidal rate of 5% or less (almost no effect)) | 5 (Herbicidal rate of 90% or more (almost completely withered)) | 3 (Herbicidal rate of 40% or more and less than 70%) | 3 (Herbicidal rate of 40% or more and less than 70%) | 3 (Herbicidal rate of 40% or more and less than 70%) | 5 (Herbicidal rate of 90% or more (almost completely withered)) | 0 (Herbicidal rate of 5% or less (almost no effect)) | Herbicidal effect by soil treatment, I: wild oat (wild oat [18]): 0 (Herbicidal rate of 5% or less (almost no effect)); Herbicidal effect by soil treatment, N: redroot pigweed (redroot pigweed [19]): 3 (Herbicidal rate of 40% or more and less than 70%); herbicidal effect on N: redroot pigweed (evaluation grade 0-5) (redroot pigweed [20]): 5 (Herbicidal rate of 90% or more (almost completely withered)); Herbicidal effect by soil treatment, O: lambsquarters (lambsquarters [21]): 3 (Herbicidal rate of 40% or more and less than 70%); herbicidal effect on R: persian speedwell (evaluation grade 0-5) (persian speedwell [22]): 5 (Herbicidal rate of 90% or more (almost completely withered)); Herbicidal effect by soil treatment, M: velvetleaf (velvetleaf [23]): 0 (Herbicidal rate of 5% or less (almost no effect))
